From patent publication US10322132B2, “Prevention or treatment of uratic or gouty diseases” (SHANTON PHARMA CO., LTD., priority 2015, dated 2019)
Values belong to the molecule of their own block, whether it stands above or below them.

How the values were obtained:
IL-1β, IL-6, KC and TNFα = experiment: Air sacculitis (MSU-induced air sacs), cytokines in lavage fluid; conditions: 5 mg/kg (dexamethasone intraperitoneal, colchicine intragastric), lavage fluid supernatant, mean, n = 8
Description: (§2) The sterile MSU crystals were added to 5 mL of sterilized saline before injected into air sacs.
(§3) Male Wistar rats were raised for one week and then randomly divided into 6 groups. Animals were anesthetized and then injected with 24 mL of sterile air in their backs. The animals received the second injection of air 4 days later. On day 7, the rats in the blank group and model group were intragastrically administered with the solvent at a dose of 10 mL/kg; the rats in the dexamethasone group were administered by intraperitoneal injection with dexamethasone at a dose of 5 mg/kg; the rats in the colchicine group were intragastrically administered with colchicine at a dose of 5 mg/kg. […] One hour after administration, the rats in the blank group were injected with 5 mL of saline into the air sacs at the back, and the rats from other groups were injected with 5 mL of MSU crystal suspension (1 mg/mL) into the air sacs at the back. Four hours later, the lavage fluid in the air sacs was taken, and a portion of the lavage fluid was used for cytological analysis. The remaining was centrifuged at 8000 rpm for 15 min, and the supernatant was stored at −80° C. for the detection of cytokines IL-1β, IL-6, KC and TNFα. The test results were shown as mean±SEM and statistically analyzed by t-test.

MSU-induced air sacs = experiment: Air sacculitis (MSU-induced air sacs), leukocyte counts in lavage fluid; conditions: for Leukocyte count: Basophil / Leukocyte count: Eosinocyte / Leukocyte count: Lymphocyte / Leukocyte count: Monocyte / Leukocyte count: Neutrophil / Total cell count: 5 mg/kg (dexamethasone intraperitoneal, colchicine intragastric), lavage fluid 4 h after MSU, mean ± SEM, n = 8;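 on all read-outs here: male Wistar rats with dorsal air sacs, dosed 1 h before injecting MSU crystal suspension, compared with saline-injected blank and vehicle-treated model groups, cytological analysis of lavage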
Description: as §2, §3

[1] = system: MSU-induced gouty arthritis; experiment: Pain value in rats with gouty arthritis (electronic Von Frey pain threshold detector); type: in vivo, Male Wistar rats
Description: The rats with gouty arthritis were placed in a metabolic cage, and the palm center of the left foot of each rat was irritated with an electronic Von Frey pain threshold detector. The maximum stress value was recorded when each rat withdrew its foot, and the value was the pain value of that rat.

[2] = Pharmacokinetics experiment in cynomolgus monkeys, intravenous; type: in vivo, cynomolgus monkeys (Macaca fascicularis); conditions: 3 mg/kg, Mean ± SD, n = 3
Description: Three non-naïve cynomolgus monkeys were administered with test compounds A, B and D at a dose of 5 mg/kg by intravenous injection and with test compound C at a dose of 3 mg/kg by intravenous injection, with one compound being tested at a time. Blood was collected from the vein before administration and 1 h, 3 h, 6 h and 24 h after administration, and plasma was isolated. The plasma was analyzed by a 4000 Q Trap LC-MS/MS instrument. The concentrations of the test samples were output by Analyst 1.6.1 from AB Company. The parameters ( ) such as the mean, standard deviation, and coefficient of variation were calculated using Microsoft Excel, wherein the values directly output by Analyst 1.6.1 requires no calculation. PK parameters were calculated using Pharsight Phoenix 6.2 software (NCA model).

IFNγ = experiment: ConA-induced IFNγ release; type: in vivo, Male C57BL/6 mice
Description: The experiment was conducted by reference to Dalya R. Soondl, Elisa Bjørgo, etc. PI3K p110δ regulates T cell cytokine production during primary and secondary immune responses in mice and humans. Blood. Author manuscript; available in PMC 2013 Mar. 11; and Gabriele Sass, Sonja Heinlein, etc. CYTOKINE EXPRESSION IN THREE MOUSE MODELS OF EXPERIMENTAL HEPATITIS. CYTOKINE, Vol. 19, No. 3 (7 Aug.), 2002: pp 115-120.
The C57BL/6 mice were raised in the SPF-grade animal room for 1 week, and were then randomly divided into the corresponding model group and the administration groups according to the body weight. The […] were administered with ConA by the tail vein injection at a dose of 15 mg/kg 30 min after the administration of the solvent or the test samples by subcutaneous injection at a dose of 20 mg/kg. After the mice were anesthetized with sodium pentobarbital (45 mg/kg by intraperitoneal injection) 3 h after administration of ConA, the blood was collected by cardiac puncture. The blood was placed in the centrifuge tube without anticoagulant and left still at room temperature. One hour later, the blood was centrifuged. The serum was extracted and stored at −80° C. The content of IFNγ (γ-interferon) in the serum was detected by a Mouse IFNγ Elisa

TNF-α = experiment: LPS-induced TNF-α release; type: in vivo, Male BALB/C mice
Description: The experiment was conducted by reference to Pascale Gaillard, Isabelle Jeanclaude-Etter, etc. Design and Synthesis of the First Generation of Novel Potent, Selective, and in Vivo Active (Benzothiazol-2-yl)acetonitrile
BALB/C mice were raised in the SPF-grade animal room for 1 week, and were then randomly divided into the corresponding model group and the administration groups according to the body weight. The […] were administered with the solvent or the test samples by subcutaneous injection at a dose of 10 mg/kg. The rats were administered with LPS by intraperitoneal injection at a dose of 15 mg/kg 30 min after the administration of the solvent or the test samples. The mice were anesthetized with sodium pentobarbital (45 mg/kg by intraperitoneal injection) 1 h after LPS administration. The blood was collected by cardiac puncture, and the content of TNF-α (tumor necrosis factor) in plasma was measured with a Mouse TNF-α Elisa Ready-set-go kit.

[3] = system: MSU-induced gouty arthritis; experiment: MSU-induced gouty arthritis, toe volume; type: in vivo, Male Wistar rats; conditions: for Inhibition of toe volume change (%): vs model group; for effect on increase of the toe volumes in the test rats (in words): compared with the model group
Description: The experiment was done by reference to Hsin-Pai Lee, Shi-Ying Huang, Yen-You Lin. Soft Coral-Derived Lemnalol Alleviates Monosodium Urate-Induced Gouty Arthritis in Rats by Inhibiting Leukocyte Infiltration and iNOS, COX-2 and c-Fos Protein Expression. […] 2013, 11, 99-113.
One gram of uric acid was weighed, introduced into 200 mL of boiling water and heated. Then, NaOH (2 mol/L) was added until pH reached 9. The solution became clear, and was cooled at room temperature and then left still overnight. MSU was obtained after filtration, which was dried at 60° C. for 24 h and then sterilized at a high temperature of 180° C.
(§1) The toe volumes of the rats were measured one day prior to the experiment. The rats were administered with the solvent by subcutaneous injection in the model group at a dose of 5 mL/kg, while the rats were administered with test samples by subcutaneous injection in administration groups at a dose of 5 mg/kg. Rats were anesthetized immediately after administration and were injected with 0.09 mL of MSU suspension into the joint cavity of the left ankle. The volume of the left toe was measured in rats 9 h after the injection of MSU into the ankle joint cavity.
as §1, with “dose of 15 mL/kg, while” for “dose of 5 mL/kg, while”, “dose of 15 mg/kg or 10 mg/kg. Rats” for “dose of 5 mg/kg. Rats”
The toe volumes of rats were measured one day prior to the experiment. The rats were administered with the solvent by subcutaneous injection in the model group at a dose of 15 mL/kg, while the rats were administered with the test sample by subcutaneous injection in administration group at a dose of 15 mg/kg. Rats were anesthetized immediately after administration and were injected with 0.09 mL of MSU suspension into the joint cavity of the left ankle. The volume of the left toe in each rat was measured 9 h after the injection of MSU into the ankle joint cavity.

serum uric acid = experiment: Uric acid-lowering experiment in cynomolgus monkeys; type: in vivo; set-up: Reduction rate of serum uric acid: concentration or dose not given beside the values; conditions: for Reduction rate of serum uric acid / Content of serum uric acid: intravenous; for Reduction rate of serum uric acid: 24 h after administration vs before administration; for Content of serum uric acid: 24 h after administration
Description: The experiment was done by reference to Komoriya K, Osada Y, Hasegawa M, Horiuchi H, Kondo S, Couch R C, Griffin T B. Hypouricemic effect of allopurinol and the novel xanthine oxidase inhibitor TEI-6720 in chimpanzees. Eur J Pharmacol. 1993 Dec. 21; 250(3): 455-60.
Each compound was tested in three non-naïve cynomolgus monkeys (1 #, 2 # and 3 #), wherein the monkeys were administered with test samples by intravenous injection. Blood was collected from the vein before administration and 1 h, 3 h, 6 h and 24 h after administration. The blood was left still at room temperature. The serum was collected by centrifugation. The content of uric acid in serum was measured. Reduction rate of serum uric acid=(average uric acid content before administration−average uric acid content after administration)/average uric acid content before administration*100%.

[4] = Example 5, 10 mg/kg subcutaneous, 9 h after MSU

SMILES: COc1cc2c(c(OC)c1OC)-c1ccc(OC)c(=O)cc1[C@@H](NC(C)=O)CC2 [Colchicine, colchicine, reference compound]
IL-1β (IL-1β, IL-6, KC and TNFα): 112.6 pg/mL
KC (IL-1β, IL-6, KC and TNFα): 9892.7 pg/mL
TNF-α (IL-1β, IL-6, KC and TNFα): 32.2 pg/mL
Leukocyte count: Basophil (MSU-induced air sacs): 0 ± 0 *10^4/air sacs
Leukocyte count: Eosinocyte (MSU-induced air sacs): 7.8 ± 2.0 *10^4/air sacs
Leukocyte count: Lymphocyte (MSU-induced air sacs): 12.1 ± 2.5 *10^4/air sacs
Leukocyte count: Monocyte (MSU-induced air sacs): 171.7 ± 20.1 *10^4/air sacs
Leukocyte count: Neutrophil (MSU-induced air sacs): 21.3 ± 6.6^$ *10^4/air sacs
Total cell count (MSU-induced air sacs): 212.9 ± 28.8^$ *10^4/air sacs
effect on increase of the total cell count and neutrophil count in the lavage fluid caused by MSU (in words) (MSU-induced air sacs; compound A at the oral doses of 30 mg/kg and 100 mg/kg): significantly inhibit

t1/2z [2]: 41.49 ± 12.31 h
SMILES: CCCCn1c(=O)n(C)c(=O)c2[nH]c(Cl)nc21 [Compound C, 8-chloro-1-methyl-3-butyl-3,7-dihydro-1H-purine-2,6-dione]
Pain value ([1]; Example 5, 10 mg/kg subcutaneous, left foot, Von Frey): 43.46 g
effect on pain values in the test rats (in words) ([1]; Example 5, compared with the model group): significantly increase
inhibition (%) (IFNγ; IFN-γ in serum vs model group, 20 mg/kg subcutaneous): 19.4%
effect on content of IFNγ in the serum of the test mice (in words) (IFNγ; compared with the model group): significantly reduce
Content of IFN-γ (IFNγ; serum, 20 mg/kg subcutaneous 30 min before ConA 15 mg/kg tail vein, 3 h after ConA): 2644 pg/mL
inhibition (%) (TNF-α; TNF-α in plasma vs model group, 10 mg/kg subcutaneous): 24.4%
effect on content of TNF-α in the plasma of the test mice (in words) (TNF-α; compared with the model group): significantly reduce
Content of TNF-α (TNF-α; plasma, 10 mg/kg subcutaneous 30 min before LPS 15 mg/kg i.p., 1 h after LPS): 1208 pg/mL
Change of toe volume ([3]; Example 4, 5 mg/kg subcutaneous, 9 h after MSU injection into left ankle joint cavity): 0.451 mL
Inhibition of toe volume change (%) ([3]; Example 4, 5 mg/kg subcutaneous, 9 h after MSU): 10.5%
effect on increase of the toe volumes in the test rats (in words) ([3]; Example 4, 5 mg/kg): significantly inhibit
Toe volume change [3, 4]: 0.261 mL
Inhibition of toe volume change (%) [3, 4]: 35.4%
effect on increase of the toe volumes in the test rats (in words) ([3]; Example 5, 15 mg/kg or 10 mg/kg): significantly inhibit
effect on serum uric acid levels in the test monkeys (in words) (serum uric acid; compared to the levels measured before administration): significantly reduce
Reduction rate of serum uric acid (serum uric acid; animal 1#): 20.3%
Reduction rate of serum uric acid (serum uric acid; animal 2#): 41.0%
Reduction rate of serum uric acid (serum uric acid; animal 3#): 13.9%
Reduction rate of serum uric acid (serum uric acid; mean): 25.7%
Content of serum uric acid (serum uric acid; animal 1#): 45.8 µmol/L
Content of serum uric acid (serum uric acid; animal 2#): 38.3 µmol/L
Content of serum uric acid (serum uric acid; animal 3#): 50.7 µmol/L
Content of serum uric acid (serum uric acid; mean): 44.9 µmol/L

SMILES: C[C@@H]1C[C@H]2[C@@H]3CCC4=CC(=O)C=C[C@]4(C)[C@@]3(F)[C@@H](O)C[C@]2(C)[C@@]1(O)C(=O)CO [Dexamethasone, dexamethasone, reference compound]
IL-1β (IL-1β, IL-6, KC and TNFα): 27.8 pg/mL
KC (IL-1β, IL-6, KC and TNFα): 1653.5 pg/mL
TNF-α (IL-1β, IL-6, KC and TNFα): 6.6 pg/mL
Leukocyte count: Basophil (MSU-induced air sacs): 0 ± 0 *10^4/air sacs
Leukocyte count: Eosinocyte (MSU-induced air sacs): 4.8 ± 1.6 *10^4/air sacs
Leukocyte count: Lymphocyte (MSU-induced air sacs): 7.5 ± 1.1 *10^4/air sacs
Leukocyte count: Monocyte (MSU-induced air sacs): 171.0 ± 19.2 *10^4/air sacs
Leukocyte count: Neutrophil (MSU-induced air sacs): 13.8 ± 2.4^$ *10^4/air sacs
Total cell count (MSU-induced air sacs): 197.2 ± 22.8^$$ *10^4/air sacs
